Active and inactive are the calls of the source. For most assays here, no stated cut-off is given here; in the data, actives have a measured EC50 and inactives only a lower limit.
Assays:
[1] = Luminescence Cell-Based Dose Confirmation HTS to Identify Activators of 5'UTR Stem-Loop Driven Alpha-Synuclein mRNA Translation in H4 Neuroglioblastoma Cells. [Related pubchem assays: 1829 (Project Summary), 1814 (Primary HTS)]; type: functional
[2] = Luminescence Cell-Based Dose Response HTS to Identify Activators of Luciferase Translation or Activity in H4 […] Cells. [Related pubchem assays: 1829 (Project Summary), 1814 (Primary HTS)]; type: functional
H4 = test: Luminescence Cell-Based Dose Response HTS to Identify Activators of 5'UTR Stem-Loop Driven Prion Protein mRNA Translation in H4 Neuroglioblastoma Cells. [Related pubchem assays: 1829 (Project Summary), 1814 (Primary HTS)]; type: functional; conditions: Homo sapiens
[3] = target: T1, Rac GTPase-activating protein 1 (Homo sapiens, UniProt Q9H0H5); test: MgcRacGAP GTPase-activating activity inhibitors, confirmation, biochemical, ADP Hunter fluorescence, primary and confirmatory (AID 624330); type: functional
T1 sequence (Q9H0H5 whole entry): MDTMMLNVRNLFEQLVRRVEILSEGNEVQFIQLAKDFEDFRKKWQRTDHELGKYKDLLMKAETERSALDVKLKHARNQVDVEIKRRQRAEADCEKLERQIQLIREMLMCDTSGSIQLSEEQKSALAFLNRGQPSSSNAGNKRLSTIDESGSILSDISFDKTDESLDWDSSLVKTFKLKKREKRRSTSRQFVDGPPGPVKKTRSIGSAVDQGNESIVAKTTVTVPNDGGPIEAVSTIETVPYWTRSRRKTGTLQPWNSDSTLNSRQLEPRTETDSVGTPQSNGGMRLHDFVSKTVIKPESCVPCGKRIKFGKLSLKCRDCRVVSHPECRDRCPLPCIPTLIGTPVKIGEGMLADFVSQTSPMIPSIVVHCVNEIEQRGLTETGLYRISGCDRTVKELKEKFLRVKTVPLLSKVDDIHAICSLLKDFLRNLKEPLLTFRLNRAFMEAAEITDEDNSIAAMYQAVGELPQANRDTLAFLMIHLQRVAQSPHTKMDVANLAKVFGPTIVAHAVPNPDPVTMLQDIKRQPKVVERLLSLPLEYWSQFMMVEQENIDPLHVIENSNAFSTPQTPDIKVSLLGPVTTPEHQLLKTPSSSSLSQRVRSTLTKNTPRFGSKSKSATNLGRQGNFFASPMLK

[4] = system: Streptococcus sp. 'group A'; test: growth inhibition of control SK(-) GAS strain, dose response, counter-screen for streptokinase expression inhibitor project, luminescence, kanamycin, BacTiterGlo, confirmation (AID 1900); type: functional, organism-based
Streptococcus = test: Group A Streptococcus viability loss, dose response, counter-screen for streptokinase expression inhibitor project, luminescence, BacTiterGlo (AID 1915); type: functional, organism-based;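 further: potency for reduction of bacterial viability or growth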
INS1 = test: beta cell apoptosis inhibitors, cytokine rescue, dose response, luminescence, retest (AID 449756); type: functional, cell-based; conditions: Rattus norvegicus;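 further: cell death triggered by IL-1 beta plus TNF-alpha plus IFN-gamma mixture; protective hits raise ATP signal compared with cytokine alone wells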
[5] = target: T2, Replicative DNA helicase DnaB (Mycobacterium tuberculosis, UniProt P9WMR3); test: DnaB intein splicing inhibitors, dose response, biochemical, cell-free fluorescence (AID 449749); type: functional
T2 sequence (P9WMR3 whole entry): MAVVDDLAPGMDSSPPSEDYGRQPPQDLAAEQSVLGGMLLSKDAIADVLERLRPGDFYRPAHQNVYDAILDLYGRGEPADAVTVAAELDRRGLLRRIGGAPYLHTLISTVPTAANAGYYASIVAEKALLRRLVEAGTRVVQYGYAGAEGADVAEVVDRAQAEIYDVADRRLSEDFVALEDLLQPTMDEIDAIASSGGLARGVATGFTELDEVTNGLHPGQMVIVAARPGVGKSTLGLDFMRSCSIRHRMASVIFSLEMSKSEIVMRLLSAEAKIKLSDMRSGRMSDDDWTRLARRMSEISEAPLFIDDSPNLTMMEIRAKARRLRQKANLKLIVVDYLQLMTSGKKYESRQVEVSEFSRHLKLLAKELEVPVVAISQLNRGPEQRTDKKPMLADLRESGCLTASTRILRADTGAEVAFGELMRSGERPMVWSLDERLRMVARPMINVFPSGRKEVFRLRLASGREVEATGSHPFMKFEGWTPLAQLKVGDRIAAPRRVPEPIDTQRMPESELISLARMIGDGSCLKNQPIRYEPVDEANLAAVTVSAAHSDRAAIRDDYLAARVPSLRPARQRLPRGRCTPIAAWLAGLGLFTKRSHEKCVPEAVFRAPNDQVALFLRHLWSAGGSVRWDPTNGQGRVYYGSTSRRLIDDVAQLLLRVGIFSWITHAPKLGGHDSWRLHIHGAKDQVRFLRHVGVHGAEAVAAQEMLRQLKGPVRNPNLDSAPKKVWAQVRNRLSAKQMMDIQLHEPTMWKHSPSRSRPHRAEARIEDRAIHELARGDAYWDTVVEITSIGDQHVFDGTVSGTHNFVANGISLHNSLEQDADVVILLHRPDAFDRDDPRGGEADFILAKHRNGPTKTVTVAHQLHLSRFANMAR

Protein RecA = target: T3, Protein RecA (Mycobacterium tuberculosis, UniProt P9WHJ3); test: Fluorescence Cell-Free Homogeneous Dose Retest to Identify Inhibitors of RecA-Intein Splicing Activity. [Related pubchem assays (depositor defined):AID2097, AID2223, AID489010, AID492950]; type: functional
T3 sequence (P9WHJ3 whole entry): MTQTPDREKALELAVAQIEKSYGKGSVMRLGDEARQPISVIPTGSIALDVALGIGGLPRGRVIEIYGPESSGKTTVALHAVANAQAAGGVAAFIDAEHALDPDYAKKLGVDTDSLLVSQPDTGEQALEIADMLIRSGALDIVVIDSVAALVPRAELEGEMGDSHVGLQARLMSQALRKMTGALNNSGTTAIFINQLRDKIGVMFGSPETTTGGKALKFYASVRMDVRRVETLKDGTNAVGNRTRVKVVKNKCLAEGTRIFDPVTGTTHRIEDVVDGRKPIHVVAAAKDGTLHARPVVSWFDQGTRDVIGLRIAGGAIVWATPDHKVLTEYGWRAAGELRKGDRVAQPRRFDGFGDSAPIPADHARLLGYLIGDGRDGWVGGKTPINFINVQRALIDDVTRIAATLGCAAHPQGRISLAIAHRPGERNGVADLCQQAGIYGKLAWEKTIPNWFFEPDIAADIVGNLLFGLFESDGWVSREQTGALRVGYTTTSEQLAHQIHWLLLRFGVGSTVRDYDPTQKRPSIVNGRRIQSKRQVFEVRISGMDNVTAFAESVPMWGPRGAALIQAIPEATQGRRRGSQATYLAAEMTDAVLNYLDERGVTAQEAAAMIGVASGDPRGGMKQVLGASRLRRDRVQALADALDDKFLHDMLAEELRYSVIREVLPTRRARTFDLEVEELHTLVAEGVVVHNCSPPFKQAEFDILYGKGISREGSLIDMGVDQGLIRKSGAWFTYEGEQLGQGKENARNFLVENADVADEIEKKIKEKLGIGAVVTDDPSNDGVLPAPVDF

[6] = target: T4, Corticotropin-releasing factor receptor 2/Corticotropin-releasing factor-binding protein (Homo sapiens, UniProt P24387+Q13324); test: Dose Response confirmation of uHTS hits for small molecule antagonists of the CRF-binding protein and CRF-R2 receptor complex.; type: functional; conditions: read-out: IC50_Mean
T4 sequence (Q13324 whole entry): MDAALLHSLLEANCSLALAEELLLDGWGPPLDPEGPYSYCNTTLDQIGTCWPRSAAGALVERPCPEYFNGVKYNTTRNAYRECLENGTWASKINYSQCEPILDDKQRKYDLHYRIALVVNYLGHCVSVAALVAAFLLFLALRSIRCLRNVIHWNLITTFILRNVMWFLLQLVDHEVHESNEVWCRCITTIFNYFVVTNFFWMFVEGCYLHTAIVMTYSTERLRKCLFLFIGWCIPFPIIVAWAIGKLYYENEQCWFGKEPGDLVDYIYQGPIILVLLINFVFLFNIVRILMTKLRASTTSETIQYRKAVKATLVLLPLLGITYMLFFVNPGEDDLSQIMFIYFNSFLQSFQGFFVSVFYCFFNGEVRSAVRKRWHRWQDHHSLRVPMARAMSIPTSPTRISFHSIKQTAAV
T4 sequence (P24387 whole entry): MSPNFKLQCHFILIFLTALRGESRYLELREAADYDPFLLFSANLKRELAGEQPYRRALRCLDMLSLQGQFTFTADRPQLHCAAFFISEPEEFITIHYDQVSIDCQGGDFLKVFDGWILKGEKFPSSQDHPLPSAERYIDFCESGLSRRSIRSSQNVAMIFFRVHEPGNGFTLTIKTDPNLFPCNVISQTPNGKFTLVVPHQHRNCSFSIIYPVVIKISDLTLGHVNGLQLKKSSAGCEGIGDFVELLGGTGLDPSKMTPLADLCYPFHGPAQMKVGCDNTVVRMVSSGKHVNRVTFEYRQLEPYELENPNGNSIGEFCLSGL

[7] = target: T4, Corticotropin-releasing factor receptor 2/Corticotropin-releasing factor-binding protein; test: activators of CRF receptor 2 with binding protein – uHTS hits, confirmation (AID 602473); type: functional; conditions: read-out: EC50_Mean
[8] = inhibitors of intracellular T. cruzi replication, confirmation, NIH3T3 host cells, beta-gal luminescence (AID 2044); type: functional, cell-based;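 further: intracellular parasites grown in NIH/3T3 mouse fibroblasts as host cells; luminescent beta-galactosidase reporter signal from transgenic T. cruzi replicating inside host cells; inhibitors lower the luminescence signal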
[9] = cytotoxicity toward NIH3T3 fibroblasts, dose response, counter-screen, cell-based, ATP luminescence, mouse fibroblasts (AID 2010); type: functional;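 further: cells exposed to compound for about 90 hours before reading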

Row | SMILES | EC50 [1] | EC50 [2] | EC50 (H4) | IC50 [3] | further results
1 | O=C1/C(=C/c2cccnc2)Oc2cc(OS(=O)(=O)c3ccccc3)ccc21 | 18.3 µM (active) | 8.55 µM (active) | > 120 µM (not active) |  | 
2 | Cn1c(CN2CCOCC2)nc2cc(NC(=O)c3ccc(Cl)cc3)ccc21 | 26.7 µM (active) | 14.3 µM (active) | > 120 µM (not active) |  | 
3 | COc1ccc2oc(=O)c(C(=O)N3CCN(c4ccccc4C)CC3)cc2c1 | 57 µM (active) | 17 µM (active) | 19 µM (active) |  | 
4 | COC(=O)C1=C(C)N(CC2CCCO2)C(=O)/C1=C\c1ccc(O)cc1 (centres undefined) |  |  |  | 25 µM (active) | 
5 | CC1CC(C)(C)N(C(=O)CN2CCN(C)CC2)c2ccccc21 (centres undefined) |  |  |  | 85.3 µM (active) | 
6 | Cc1ccc(O)c(NC(=S)NC(=O)c2ccc(-c3ccc(Cl)cc3)o2)c1 |  |  |  |  | EC50 [4]: 1.16 µM (active); EC50 (Streptococcus): 5.74 µM (active); AC50 (INS1): 16.7 µM (active)
7 | Cc1ccc2c(c1)C(c1ccncc1)=NNC(c1ccccc1)=N2 | 0.364 µM (active) | > 120 µM (not active) | 21.2 µM (active) |  | 
8 | COc1cccc(NC(=O)C(=O)NCC2CCCN2S(=O)(=O)c2ccccc2)c1 (centres undefined) | 4.26 µM (active) | 2.67 µM (active) | 58.8 µM (active) |  | 
9 | COc1cc(-c2nc3ccc(C)cn3c2NCc2ccccc2)ccc1SC1CCCCC1 |  |  |  |  | AC50 (INS1): 4.87 µM (active)
10 | Cc1n[nH]c(SCC(=O)N2CCCCC2)c1[N+](=O)[O-] | 14.7 µM (active) | 8.02 µM (active) | 17.3 µM (active) |  | 
11 | Nc1ccc(N2CCN(c3ccc(Cl)c(Cl)c3)CC2)cc1 |  |  |  | 18.1 µM (active) | 
12 | CCN1C(=O)/C(=C\NC2CCCC(C)C2C)SC1=S (centres undefined) | 0.564 µM (active) | 15.8 µM (active) | > 120 µM (not active) |  | 
13 | O=c1oc2ccccc2cc1NCc1ccccc1O | 0.325 µM (active) | 5.63 µM (active) | 46.2 µM (active) |  | 
14 | O=C(Cc1ccc([N+](=O)[O-])cc1)Nc1cccnc1 |  |  |  |  | AC50 (INS1): 21.1 µM (active)
15 | COc1cc(/C=C(\C#N)C(=O)Nc2ccc3c(c2)OCCO3)ccc1O |  |  |  | 34 µM (active) | AC50 [5]: 75.9 µM (active); EC50 (Protein RecA): 13.9 µM (active); IC50 [6]: > 47.1 µM (inactive); EC50 [7]: > 53 µM (inactive)
16 | CC(C(=O)Nc1ccc2c(c1)OCO2)N1CCN(C)CC1 (centres undefined) |  |  |  | 65.3 µM (active) | 
17 | Cc1ccc(S(=O)(=O)N2CCN(C(=O)CN3CCN(c4ccc(O)cc4)CC3)CC2)cc1 |  |  |  | 32.4 µM (active) | 
18 | COc1cc(/C=C/C(=O)OCC(=O)N(CC(C)C)c2c(N)n(Cc3ccccc3)c(=O)[nH]c2=O)ccc1O |  |  |  | 65.7 µM (active) | EC50 [7]: 2.73 µM (active)
19 | Cc1ccc(CSc2nnc(SCC(=O)N/N=C/c3c(C)nn(-c4ccccc4)c3C)s2)cc1 | 0.169 µM (active) | > 120 µM (not active) | 43.9 µM (active) |  | 
20 | COc1cc(/C=N/NC(=O)c2nc(-c3ccccc3)n(-c3ccccc3)n2)ccc1O |  |  |  | 38.7 µM (active) | 
21 | C/C(=N\N1C(=O)c2ccccc2NC1c1ccccc1)c1ccccc1O (centres undefined) |  |  |  |  | EC50 [8]: 2.13 µM (active); EC50 [9]: 7.4 µM (active); AC50 (INS1): 2.24 µM (active)
22 | O=C(/N=C1\SCC(=O)N1c1ccccc1Cl)c1ccco1 | 4.12 µM (active) | 8.06 µM (active) |  |  | 
23 | N#CCC(=O)N/N=C/c1cc(-c2ccccc2)n(-c2ccc(Cl)cc2)c1-c1ccccc1 |  |  |  |  | EC50 [8]: 1.51 µM (active); EC50 [9]: > 60 µM (inconclusive); AC50 (INS1): 3.21 µM (active)
24 | CCOc1cc(/C=N/NC(=O)C(=O)NCc2cccnc2)ccc1O |  |  |  | 54.5 µM (active) | 
